Reference: patent publication US20120142685A1, “ORGANIC COMPOUNDS” (priority 2007, published 2012)
Read-outs that look alike come from different tables or passages of the source.

Assays:
[1] = test system: HDAC5 nuclear export; experiment: HDAC5 nuclear export assay in neonatal rat ventricular myocytes (GFP-HDAC5, PGF2α stimulated); format: cell-based; details: Ventricular myocyte, 2 h
Protocol: Compounds are evaluated in the HDAC5 nuclear […] assay, a 384-well plate-based assay that enables high throughput screening (HTS) to identify small molecules that block agonist-dependent nuclear export of HDAC5. This assay employs the Cellomics High Content Imaging platform (Giuliano & Taylor 1998) and adenovirus encoding green fluorescent protein (GFP) tagged HDAC5. Neonatal rat ventricular myocytes (NRVMs) are infected with GFP-HDAC5 encoding virus and plated on gelatin-coated 384-well dishes. Cells are exposed to compound and stimulated with an prostaglandin (PGF2α), which is a potent stimulus for HDAC5 nuclear export. Following two hours of stimulation, cells are fixed and GFP-HDAC5 localization quantified using the Cellomics system, which provides a read-out of relative fluorescence intensity in the cytoplasmic versus nuclear compartment.

[2] = target: T1, protein kinase D3 (PKD3) (Homo sapiens, UniProt O94806); experiment: PKD3 TR-FRET (LANCE) kinase assay; format: biochemical
T1 construct: This assay is performed with full length wild-type enzyme that is purchased from Invitrogen; purchased Invitrogen
T1 sequence (O94806 1-890): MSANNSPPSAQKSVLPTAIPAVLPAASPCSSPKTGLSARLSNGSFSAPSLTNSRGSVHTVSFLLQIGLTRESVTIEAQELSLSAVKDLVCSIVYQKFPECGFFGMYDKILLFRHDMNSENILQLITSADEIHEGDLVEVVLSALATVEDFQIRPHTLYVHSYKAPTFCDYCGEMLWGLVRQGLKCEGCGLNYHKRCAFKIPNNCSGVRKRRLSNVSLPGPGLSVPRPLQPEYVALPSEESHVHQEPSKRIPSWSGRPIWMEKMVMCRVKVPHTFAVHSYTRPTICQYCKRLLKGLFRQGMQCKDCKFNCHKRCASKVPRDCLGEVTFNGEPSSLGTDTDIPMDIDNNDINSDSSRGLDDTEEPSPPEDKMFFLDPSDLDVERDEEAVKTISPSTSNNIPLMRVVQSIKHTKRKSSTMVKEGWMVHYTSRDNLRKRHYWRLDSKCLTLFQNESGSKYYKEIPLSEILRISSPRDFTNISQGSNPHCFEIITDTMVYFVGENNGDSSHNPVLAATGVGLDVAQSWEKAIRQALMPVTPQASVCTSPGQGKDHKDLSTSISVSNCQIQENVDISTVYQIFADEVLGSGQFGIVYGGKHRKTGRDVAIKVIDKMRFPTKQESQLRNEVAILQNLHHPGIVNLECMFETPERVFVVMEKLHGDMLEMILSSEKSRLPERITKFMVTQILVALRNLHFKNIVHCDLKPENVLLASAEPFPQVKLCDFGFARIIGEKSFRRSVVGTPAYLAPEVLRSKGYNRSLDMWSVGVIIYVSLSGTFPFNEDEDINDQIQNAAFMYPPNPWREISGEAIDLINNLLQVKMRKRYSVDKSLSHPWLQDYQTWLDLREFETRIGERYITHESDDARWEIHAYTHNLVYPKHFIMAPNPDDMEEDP
Excerpt: The assay to measure protein kinase D3 (PKD3) activity is a time-resolved fluorescence resonance transfer (TR-FRET) assay using PerkinElmer's LANCE™ technology. In this case, a biotinylated syntide-2 peptide is used as the substrate in this reaction. Phosphorylation of the syntide-2 substrate is detected by a specific antibody that recognizes the phosphorylated peptide. A second fluorophore, APC, is conjugated to streptavidin that binds the biotinylated syntide-2 peptide. […] Therefore, when the europium labeled secondary antibody binds on the phosphorylated peptide, it is brought into close contact with the APC and excites this fluorophore.
This assay is performed with full length wild-type enzyme that is purchased from Invitrogen. The reaction buffer consists of 35 mM Tris-HCl pH7.5, 5 mM MgCl2, 0.02% Tween-20, 20 μM ATP, 1 mM DTT and 0.2 μg/mL PKD3 enzyme. The enzyme reaction is initiated by the addition of 2 μM syntide-2 peptide substrate and the reaction carried out for 50 minutes at room temperature. The reaction is stopped by a stop/detection buffer consisting of 50 mM EDTA, 0.18 mg/mL rabbit polyclonal anti-phospho syntide-2 antibody, 0.5 nM europium labeled anti-rabbit IgG and 10 nM streptavidin conjugated APC. After a one hour incubation with the stop/detection buffer, the reaction is read on an Envision 2100 Reader using a LANCET™ Eu/APC dual protocol. […] IC50 values are calculated using an Activity Base (IDBS) software program.

[3] = NRVMs, GFP-HDAC5, PGF2α stimulation two hours, read-out: Inhibitory Activity HDAC
[4] = full length wild-type enzyme, 20 μM ATP, read-out: Inhibitory Activity PKD3
[5] = read-out: Inhibitory Activity HDAC (nM)

| SMILES | IC50 [1, 3] | IC50 [2, 4] | IC50 [1, 5] | IC50 [2] |
| --- | --- | --- | --- | --- |
| COc1cccc(Nc2cc(-c3cc4cnccc4c(NCCO)n3)ccn2)c1 [Example 7] | 86 nM | 62 nM |  |  |
| CC(C)Nc1cc(-c2cc3cnccc3c(NCCO)n2)ccn1 [Example 6, 2-[3-(2-Isopropylaminopyridin-4-yl)-[2,6]naphthyridin-1-ylamino]ethanol] |  | 120 nM |  |  |
| CN1CCN(c2nc(-c3ccnc(NC4CCCCC4)c3)cc3cnccc23)CC1 [Example 13, Cyclohexyl-{4-[1-(4-methylpiperazin-1-yl)-[2,6]naphthyridin-3-yl]pyridin-2-yl}amine] |  |  | 206 nM | 1 nM |
| c1cc2c(NC3CCCNC3)nc(-c3ccnc(NC4CCCCC4)c3)cc2cn1 (centres unmarked) [Example 15, [3-(2-Cyclohexylaminopyridin-4-yl)-[2,6]naphthyridin-1-yl]piperidin-3-ylamine] |  | 19 nM | 605 nM |  |
| Cn1ccc(Nc2cc(-c3cc4cnccc4c(N4CCC(C(N)=O)CC4)n3)ccn2)n1 [Example 19, 1-{3-[2-(1-Methyl-1H-pyrazol-3-ylamino)pyridin-4-yl]-[2,6]naphthyridin-1-yl}piperidine-4-carboxylic acid amide] | 12 nM | 0.4 nM |  |  |
| O=C(NC1CC1)C1CCN(c2nc(-c3ccnc(NC4CCOCC4)c3)cc3cnccc23)CC1 [Example 17, 1-{3-[2-(Tetrahydropyran-4-ylamino)pyridin-4-yl]-[2,6]naphthyridin-1-yl}piperidine-4-carboxylic acid cyclopropylamide] |  | 3 nM | 88 nM |  |
| COCCNc1cc(-c2cc3cnccc3c(N3CCNCC3)n2)ccn1 [Example 21, (2-Methoxyethyl)-[4-(1-piperazin-1-yl-[2,6]naphthyridin-3-yl)-pyridin-2-yl]amine] | 371 nM | 10 nM |  |  |
| c1ccc(Nc2cc(-c3cc4cnccc4c(N4CCNCC4)n3)ccn2)cc1 [Example 4, Phenyl-[4-(1-piperazin-1-yl-[2,6]naphthyridin-3-yl)pyridin-2-yl]amine] |  | 8 nM | 2 nM |  |
| CCNC(=O)N1CCN(c2nc(-c3ccnc(Nc4ccn(C)n4)c3)cc3cnccc23)CC1 [Example 18, 4-{3-[2-(1-Methyl-1H-pyrazol-3-ylamino)pyridin-4-yl]-[2,6]naphthyridin-1-yl}piperazine-1-carboxylic acid ethylamide] |  | 30 nM | 534 nM |  |
| CNc1cc(-c2cc3cnccc3c(NC)n2)ccn1 [Example 2, 1-Methylamino-3-(2-methylaminopyridin-4-yl)-[2,6]-naphthyridine] |  |  |  | 450 nM |
| O=C(NCCO)C1CCN(c2nc(-c3ccnc(NC4CCOCC4)c3)cc3cnccc23)CC1 [Example 16, 1-{3-[2-(Tetrahydropyran-4-ylamino)pyridin-4-yl]-[2,6]naphthyridin-1-yl}piperidine-4-carboxylic acid (2-hydroxyethyl)amide] | 60 nM | 2 nM |  |  |
| CNc1cc(-c2cc3cnccc3c(NCCCO)n2)ccn1 [Example 1] |  | 227 nM |  |  |
| Cn1ccc(Nc2cc(-c3cc4cnccc4c(N4CCC5(CCNC5=O)CC4)n3)ccn2)n1 [Example 20, 8-{3-[2-(1-Methyl-1H-pyrazol-3-ylamino)pyridin-4-yl]-[2,6]naphthyridin-1-yl}-2,8-diaza-spiro[4.5]decan-1-one] | 361 nM | 9 nM |  |  |
| CN(C)CCNc1nc(-c2ccnc(Nc3ccccc3)c2)cc2cnccc12 [Example 9, N,N-Dimethyl-N′-[3-(2-phenylaminopyridin-4-yl)-[2,6]naphthyridin-1-yl]-ethane-1,2-diamine] | 756 nM | 39 nM |  |  |

The next lines start with results.

| IC50 [1, 3] | IC50 [2, 4] | SMILES | IC50 [1, 5] | IC50 [2] |
| --- | --- | --- | --- | --- |
|  | 58 nM | CN(C)CCNc1nc(-c2ccnc(NC3CCCCC3)c2)cc2cnccc12 [Example 8, N-[3-(2-Cyclohexylaminopyridin-4-yl)-[2,6]naphthyridin-1-yl]-N′,N′-dimethylethane-1,2-diamine] |  |  |
| 36 nM | 1 nM | c1cc2c(NC3CCNC3)nc(-c3ccnc(NC4CCCCC4)c3)cc2cn1 (centres unmarked) [Example 14, [3-(2-Cyclohexylaminopyridin-4-yl)-[2,6]naphthyridin-1-yl]pyrrolidin-3-ylamine] |  |  |
|  | 21 nM | CN(C)CC1CCN(c2nc(-c3ccnc(NC4CCCCC4)c3)cc3cnccc23)CC1 [Example 12, Cyclohexyl-{4-[1-(4-dimethylaminomethylpiperidin-1-yl)-[2,6]naphthyridin-3-yl]pyridin-2-yl}amine] |  |  |
| 32 nM | 0.3 nM | c1cc2c(N3CCNCC3)nc(-c3ccnc(NC4CCCCC4)c3)cc2cn1 [Example 3, Cyclohexyl-[4-(1-piperazin-1-yl-[2,6]naphthyridin-3-yl)pyridin-2-yl]amine] |  |  |
|  | 339 nM | OCCNc1nc(-c2ccnc(NC3CCCCC3)c2)cc2cnccc12 [Example 5, 2-[3-(2-Cyclohexylaminopyridin-4-yl)-[2,6]naphthyridin-1-ylamino]ethanol] |  |  |
| 203 nM | 83 nM | NC(=O)C1CCN(c2nc(-c3ccnc(NC4CCCCC4)c3)cc3cnccc23)CC1 [Example 10, 1-[3-(2-Cyclohexylaminopyridin-4-yl)-[2,6]naphthyridin-1-yl]piperidine-4-carboxylic acid amide] |  |  |
|  | 23 nM | CC(=O)N1CCN(c2nc(-c3ccnc(NC4CCCCC4)c3)cc3cnccc23)CC1 [Example 11, 1-{4-[3-(2-Cyclohexylaminopyridin-4-yl)-[2,6]naphthyridin-1-yl]piperazin-1-yl}ethanone] |  |  |
